Laboratory results: patent US20240199590A1, “SOLID FORMS OF A SGC ACTIVATOR” (Boehringer Ingelheim International GmbH, priority 2022, published 2024)

Assays:
Format in all cases: physicochemical
[1] = Storage stability of samples of Form I at controlled temperature and relative humidity
Experimental: Samples of Form I were maintained for at least 9 months at 25°, and 60% and at least 6 months at 40° and 75% relative humidity.

[2] = Solid form stability (tendency to convert to a different solid form, high RH)
Experimental: (§1) Water sorption isotherms are determined using a dynamic vapor sorption system (Advantage 1, DVS, London, UKDVS Intrinsic Plus, Surface Measurement Systems, Allentown, PA).
(§2) Approximately 5-10 mg of solid is weighed into a tared aluminum pan. The samples are subjected to 0 to 90% RH stepwise with a step size of […] at 25° C. Equilibration criteria are dm/dt of 0.002% over 5 minutes or 360 minutes at a specified % RH. Each sample is equilibrated at each RH step for at least 60 min, and equilibrium is assumed if weight increase is less than 0.1% within one minute, and the maximum duration on each RH is 6 hours. Therefore, each sample is held at a given RH for 1 to 6 hours depending on how fast the equilibrium is reached
The amorphous of Compound 1 (10 mg) is added to a pan for Dynamic Vapor Sorption analysis. The solid is exposed stepwise from 40 to 95 to 0 to 95 to 0% RH at 25° C. Form III is isolated after completing the stepwise exposures.

[3] = Hygroscopicity (water sorption, dynamic vapor sorption); settings: compared to the anhydrate (Form I) and monohydrate forms (Form III, Form V)
Experimental: as §1, §2

[4] = at least 6 months at 40° and 75% relative humidity
[5] = at least 9 months at 25°, and 60%

change in particle sized distribution on storage [1, 4]	changes in Raman spectra on storage [1, 4]	increase in impurity levels on storage [1, 4]	increase in water content on storage [1, 4]	change in particle sized distribution on storage [1, 5]	changes in Raman spectra on storage [1, 5]	increase in impurity levels on storage [1, 5]	increase in water content on storage [1, 5]	stability as compared to the amorphous form of Compound 1 ([2]; compared to the amorphous form)	hygroscopicity [3]	stability of the solid form under high RH ([2]; high RH, converting to Form III)	Structure (SMILES)
no change in particle sized distribution	no	no increase in impurity levels	no increase in water content	no change in particle sized distribution	no	no increase in impurity levels	no increase in water content	improved stability	–	–	CCOc1c(C(=O)O)cnn1-c1cccc(-c2cccc(C)c2OCc2ccc3c(c2C)CCN(C2CCOCC2)C3)n1 [Form I]
–	–	–	–	–	–	–	–	–	higher hygroscopicity	not stable	CCOc1c(C(=O)O)cnn1-c1cccc(-c2cccc(C)c2OCc2ccc3c(c2C)CCN(C2CCOCC2)C3)n1 [amorphous form of Compound 1]
